Experimental data: patent US10945685B2, “System and method for normalizing standardized uptake values in brain positron emission tomography (PET) images” (New York University, priority 2018, dated 2021)

Experiments:
[1] = target: T1, Monoamine oxidase B (MAO-B) (Homo sapiens, UniProt P27338); experiment: MAO-B off-target binding of tau PET tracer; type: in vivo; conditions: SUVP data, Example I
T1 construct: from tissue; host or cells: brain of living AD patients and normal control subjects (in vivo PET)
T1 sequence (P27338 1-520): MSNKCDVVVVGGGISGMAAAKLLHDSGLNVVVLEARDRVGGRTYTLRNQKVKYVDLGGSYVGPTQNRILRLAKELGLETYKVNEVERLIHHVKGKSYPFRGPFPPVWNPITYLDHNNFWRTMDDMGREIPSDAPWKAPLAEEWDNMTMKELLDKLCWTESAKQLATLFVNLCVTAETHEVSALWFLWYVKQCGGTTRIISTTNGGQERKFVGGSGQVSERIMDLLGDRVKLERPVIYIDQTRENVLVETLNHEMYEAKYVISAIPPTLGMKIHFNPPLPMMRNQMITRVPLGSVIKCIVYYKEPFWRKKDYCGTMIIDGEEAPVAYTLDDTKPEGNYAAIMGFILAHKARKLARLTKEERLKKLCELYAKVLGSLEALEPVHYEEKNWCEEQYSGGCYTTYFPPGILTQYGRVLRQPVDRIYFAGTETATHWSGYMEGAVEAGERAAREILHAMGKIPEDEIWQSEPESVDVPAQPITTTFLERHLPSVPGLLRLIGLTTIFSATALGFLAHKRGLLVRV

[2] = target: T1, Monoamine oxidase B (MAO-B); conditions: recent data, background; cited from earlier work
tau = experiment: Example II: global and regional tau binding by SUVR, PERSI and SUVP, 42 NL and 22 AD; type: in vivo, human; conditions: with SUVR, 64 subjects
Description: Example II, as discussed below, provides an exemplary embodiment comparing tau PET uptake quantification methods based on a 18F-AV-1451 tracer. Quantitative measurement of tau bindings from PET tracers (such as AV1451) is crucial in the PET-based study of tauopathies (such as Alzheimer's). The standardized uptake value ratio (SUVR) method has been challenged by the off-target binding in reference region. An unbiased tau binding quantification may be achieved via several different methods, including the Parametric Estimate of Reference Signal Intensity (PERSI) method by Avid Radiopharmaceutical and standardized uptake value peak-alignment (SUVP) method. In Example II, we compared the sensitivity of SUVR, PERSI and SUVP methods on the same PET dataset, in both global and local regions.
Using SUVR, PERSI, and SUVP, we evaluated the global and regional tau binding of 18F-AV-1451 on 64 subjects, with 42 cognitively normal (NL) and 22 Alzheimer's disease (AD), and compared the group differences of tau binding under the three different methods. Cerebral cortex was used as ROI for global binding test. The average SUVP value in ROIs is computed by averaging all positive SUVP values (SUVP>0) within the ROI, and positive binding percentage (PBP) for SUVP is defined as the ratio of voxel number with SUVP>1.5 over the total voxel number within the ROI.

[3] = target: T2, Monoamine oxidase A (MAO-A) (Homo sapiens, UniProt P21397); conditions: recent data, background; cited from earlier work
T2 sequence (P21397 1-527): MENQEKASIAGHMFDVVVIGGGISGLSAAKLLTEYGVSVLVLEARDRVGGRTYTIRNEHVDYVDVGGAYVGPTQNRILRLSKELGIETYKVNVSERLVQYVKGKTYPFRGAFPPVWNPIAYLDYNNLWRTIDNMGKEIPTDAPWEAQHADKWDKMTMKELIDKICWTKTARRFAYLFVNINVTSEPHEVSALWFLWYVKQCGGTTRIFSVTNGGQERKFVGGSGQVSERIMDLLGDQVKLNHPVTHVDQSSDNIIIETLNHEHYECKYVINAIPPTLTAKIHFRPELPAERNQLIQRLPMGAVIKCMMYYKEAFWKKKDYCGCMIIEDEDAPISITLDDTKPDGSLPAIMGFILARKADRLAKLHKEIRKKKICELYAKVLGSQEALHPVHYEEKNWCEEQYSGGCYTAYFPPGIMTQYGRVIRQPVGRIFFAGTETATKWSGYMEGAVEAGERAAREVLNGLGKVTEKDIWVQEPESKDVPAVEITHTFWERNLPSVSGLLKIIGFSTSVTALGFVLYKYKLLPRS

Structure (SMILES)	MAO-B off-target binding [1]	MAO-B binding [2]	tau binding, AD subjects versus cognitively normal NL subjects (tau)	MAO-A binding [3]
CNc1ccc(-c2ccc3cc(OC[C@H](O)CF)ccc3n2)cn1 [THK5351]	MAO-B off-target binding in THK5351 was observed	widespread Monoamine oxidase B (MAO-B) binding	–	–
[18F]c1ccc(-c2ccc3c(c2)[nH]c2ccncc23)cn1 [AV-1451]	–	–	significantly higher tau binding	some Monoamine oxidase A (MAO-A) binding
